Data reported in US10428083B2, “Heterocyclylmethyl-thienouracile as antagonists of the adenosine-A2B-receptor” (BAYER PHARMA AKTIENGESELLSCHAFT, priority 2015, dated 2019).

These compounds were tested against human adenosine A2b receptor (Homo sapiens (Human), UniProt P29275) (assay: Cellular in vitro reporter gene test for A2b receptor activity (CHO-K1, CRE-luciferase, NECA stimulation)). Conditions: recombinant CHO-K1 cell line, CRE-luciferase reporter, antagonism of EC50 concentration of NECA; in some cases means of several determinations, rounded to two significant figures; read-out: A2b receptor IC50.
Chain of human adenosine A2b receptor (P29275 whole entry): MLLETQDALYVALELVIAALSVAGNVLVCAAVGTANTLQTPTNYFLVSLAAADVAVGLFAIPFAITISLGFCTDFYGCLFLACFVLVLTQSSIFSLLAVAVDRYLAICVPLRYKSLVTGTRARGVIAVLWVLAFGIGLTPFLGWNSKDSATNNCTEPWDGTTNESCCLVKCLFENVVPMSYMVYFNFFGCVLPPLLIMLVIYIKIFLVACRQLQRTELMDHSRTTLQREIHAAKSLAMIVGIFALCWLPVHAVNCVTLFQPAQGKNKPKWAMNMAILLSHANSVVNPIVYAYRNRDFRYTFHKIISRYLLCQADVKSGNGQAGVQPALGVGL
Format: cell-based
Experimental: B-1. Cellular In Vitro Tests for Determining A2b Receptor Activity and Adenosine Receptor Selectivity
In the case of the A2a and A2b cell lines, this is a minimal promoter having a plurality of cAMP-responsive elements (CRE). Stimulation of the Gs-coupled A2b or A2a receptors by NECA ultimately leads, via formation of cAMP, to CRE-dependent induction of luciferase expression, which is detected 3 hours after the start of the incubation with NECA using a detection solution in a suitable luminometer. For testing the antagonists, initially, in a pre-experiment, the concentration of NECA which, at the test day in question, results in half-maximum stimulation of luciferase expression (EC50 concentration) is determined. By joint incubation of this EC50 concentration of NECA with the substances to be tested, it is possible to determine their antagonistic activity.
Cc1c(CN2CCNC2=O)sc2c1c(=O)n(CC(F)(F)F)c(=O)n2CC1CCO1 (racemic) [Example 206, 5-Methyl-1-(oxetan-2-ylmethyl)-6-[(2-oxoimidazolidin-1-yl)methyl]-3-(2,2,2-trifluoroethyl)thieno[2,3-d]pyrimidine-2,4(1H,3H)-dione] was tested, and the IC50 was 11 nM. Cc1c(CN2CCNC2=O)sc2c1c(=O)n(CC(F)(F)F)c(=O)n2CC1CCCO1 (racemic) [Example 209, 5-Methyl-6-[(2-oxoimidazolidin-1-yl)methyl]-1-(tetrahydrofuran-2-ylmethyl)-3-(2,2,2-trifluoroethyl)thieno[2,3-d]pyrimidine-2,4(1H,3H)-dione] was tested, and the IC50 was 12 nM. Compound Cc1c(CN2CCNC2=O)sc2c1c(=O)n(CC(F)F)c(=O)n2CC1CCO1 (racemic) [Example 216, 3-(2,2-Difluoroethyl)-5-methyl-1-(oxetan-2-ylmethyl)-6-[(2-oxoimidazolidin-1-yl)methyl]thieno[2,3-d]pyrimidine-2,4(1H,3H)-dione] has an IC50 of 34 nM. Cc1c(CN2CCNC2=O)sc2c1c(=O)n(CC(F)F)c(=O)n2CC1CCCO1 (racemic) [Example 219, 3-(2,2-Difluoroethyl)-5-methyl-6-[(2-oxoimidazolidin-1-yl)methyl]-1-(tetrahydrofuran-2-ylmethyl)thieno[2,3-d]pyrimidine-2,4(1H,3H)-dione] gave an IC50 of 19 nM. For COCCn1c(=O)c2c(C)c(CN3CCNC3=O)sc2n(CC2CCCO2)c1=O (racemic) [Example 233, 3-(2-Methoxyethyl)-5-methyl-6-[(2-oxoimidazolidin-1-yl)methyl]-1-(tetrahydrofuran-2-ylmethyl)thieno[2,3-d]pyrimidine-2,4(1H,3H)-dione], the IC50 was 23 nM. CCn1c(=O)c2c(C)c(Cn3cc[nH]c3=O)sc2n(CC2CCCO2)c1=O (racemic) [Example 242, 3-Ethyl-5-methyl-6-[(2-oxo-2,3-dihydro-1H-imidazol-1-yl)methyl]-1-(tetrahydrofuran-2-ylmethyl)thieno[2,3-d]pyrimidine-2,4(1H,3H)-dione] was tested, and the IC50 was 1.4 nM. Work on Cc1c(Cn2cc[nH]c2=O)sc2c1c(=O)n(C(C)C)c(=O)n2CC1CCCO1 (racemic) [Example 247, 3-Isopropyl-5-methyl-6-[(2-oxo-2,3-dihydro-1H-imidazol-1-yl)methyl]-1-(tetrahydrofuran-2-ylmethyl)thieno[2,3-d]pyrimidine-2,4(1H,3H)-dione] yielded an IC50 of 8.9 nM. Compound CCn1c(=O)c2c(C)c(CN3CCNC3=NC#N)sc2n(CC2CCO2)c1=O (racemic) [Example 256, [1-{[3-Ethyl-5-methyl-1-(oxetan-2-ylmethyl)-2,4-dioxo-1,2,3,4-tetrahydrothieno[2,3-d]pyrimidin-6-yl]methyl}imidazolidin-2-ylidene]cyanamide] has an IC50 of 11 nM. CCn1c(=O)c2c(C)c(CN3CCNC3=NC#N)sc2n(CC2CCCO2)c1=O (racemic) [Example 259, [1-{[3-Ethyl-5-methyl-2,4-dioxo-1-(tetrahydrofuran-2-ylmethyl)-1,2,3,4-tetrahydrothieno[2,3-d]pyrimidin-6-yl]methyl}imidazolidin-2-ylidene]cyanamide] gave an IC50 of 9.8 nM. Cc1c(CN2CCNC2=NC#N)sc2c1c(=O)n(C(C)C)c(=O)n2CC1CCO1 (racemic) [Example 264, [1-{[3-Isopropyl-5-methyl-1-(oxetan-2-ylmethyl)-2,4-dioxo-1,2,3,4-tetrahydrothieno[2,3-d]pyrimidin-6-yl]methyl}imidazolidin-2-ylidene]cyanamide] showed an IC50 of 3.1 nM. Cc1c(CN2CCNC2=NC#N)sc2c1c(=O)n(C(C)C)c(=O)n2CC1CCCO1 (racemic) [Example 267, [1-{[3-Isopropyl-5-methyl-2,4-dioxo-1-(tetrahydrofuran-2-ylmethyl)-1,2,3,4-tetrahydrothieno[2,3-d]pyrimidin-6-yl]methyl}imidazolidin-2-ylidene]cyanamide] was tested, and the IC50 was 4.6 nM. Cc1c(CN2CCNC2=NC#N)sc2c1c(=O)n(CC(F)(F)F)c(=O)n2CC1CCCO1 (racemic) [Example 269, [1-{[5-Methyl-2,4-dioxo-1-(tetrahydrofuran-2-ylmethyl)-3-(2,2,2-trifluoroethyl)-1,2,3,4-tetrahydrothieno[2,3-d]pyrimidin-6-yl]methyl}imidazolidin-2-ylidene]cyanamide] gave an IC50 of 24 nM. Work on COCCn1c(=O)c2c(C)c(CN3CCNC(=O)C3=O)sc2n(CC2CCCO2)c1=O (racemic) [Example 278, 6-[(2,3-Dioxopiperazin-1-yl)methyl]-3-(2-methoxyethyl)-5-methyl-1-(tetrahydrofuran-2-ylmethyl)thieno[2,3-d]pyrimidine-2,4(1H,3H)-dione] yielded an IC50 of 130 nM. Compound Cc1c(Cn2[nH]ccc2=O)sc2c1c(=O)n(CC(F)(F)F)c(=O)n2CC1CCCO1 (racemic) [Example 284, 5-Methyl-6-[(5-oxo-2,5-dihydro-1H-pyrazol-1-yl)methyl]-1-(tetrahydrofuran-2-ylmethyl)-3-(2,2,2-trifluoroethyl)thieno[2,3-d]pyrimidine-2,4(1H,3H)-dione] has an IC50 of 79 nM. With COCCn1c(=O)c2c(C)c(Cn3[nH]ccc3=O)sc2n(CC2CCCO2)c1=O (racemic) [Example 289, 3-(2-Methoxyethyl)-5-methyl-6-[(5-oxo-2,5-dihydro-1H-pyrazol-1-yl)methyl]-1-(tetrahydrofuran-2-ylmethyl)thieno[2,3-d]pyrimidine-2,4(1H,3H)-dione] the IC50 was 180 nM. Work on CCn1c(=O)c2c(C)c(CN3CC(C)NC3=S)sc2n(CCOC)c1=O (racemic) [Example 303, 3-Ethyl-1-(2-methoxyethyl)-5-methyl-6-[(4-methyl-2-thioxoimidazolidin-1-yl)methyl]thieno[2,3-d]pyrimidine-2,4(1H,3H)-dione] yielded an IC50 of 46 nM. Compound COCCn1c(=O)n(CC2CC2(F)F)c(=O)c2c(C)c(CN3CCNC3=O)sc21 (racemic) [Example 323, 3-[(2,2-Difluorocyclopropyl)methyl]-1-(2-methoxyethyl)-5-methyl-6-[(2-oxoimidazolidin-1-yl)methyl]thieno[2,3-d]pyrimidine-2,4(1H,3H)-dione] has an IC50 of 34 nM. COCCn1c(=O)n(C(C)COC)c(=O)c2c(C)c(CN3CCNC3=O)sc21 (racemic) [Example 329, 1-(2-Methoxyethyl)-3-(1-methoxypropan-2-yl)-5-methyl-6-[(2-oxoimidazolidin-1-yl)methyl]thieno[2,3-d]pyrimidine-2,4(1H,3H)-dione] was tested, and the IC50 was 900 nM. In the case of COCCn1c(=O)n(CC2CCCO2)c(=O)c2c(C)c(CN3CCNC3=O)sc21 (racemic) [Example 332, 1-(2-Methoxyethyl)-5-methyl-6-[(2-oxoimidazolidin-1-yl)methyl]-3-(tetrahydrofuran-2-ylmethyl)thieno[2,3-d]pyrimidine-2,4(1H,3H)-dione], the IC50 is reported as 110 nM. Cc1c(Cn2cc[nH]c2=O)sc2c1c(=O)n(CC(F)(F)F)c(=O)n2CC1CCCO1 (racemic) [Example 341, 5-Methyl-6-[(2-oxo-2,3-dihydro-1H-imidazol-1-yl)methyl]-1-(tetrahydrofuran-2-ylmethyl)-3-(2,2,2-trifluoroethyl)thieno[2,3-d]pyrimidine-2,4(1H,3H)-dione] was tested, and the IC50 was 12 nM. Compound COCCn1c(=O)c2c(C)c(Cn3cc[nH]c3=O)sc2n(CC2CCCO2)c1=O (racemic) [Example 346, 3-(2-Methoxyethyl)-5-methyl-6-[(2-oxo-2,3-dihydro-1H-imidazol-1-yl)methyl]-1-(tetrahydrofuran-2-ylmethyl)thieno[2,3-d]pyrimidine-2,4(1H,3H)-dione] has an IC50 of 37 nM. Work on COCCn1c(=O)c2c(C)c(CN3CCNC3=NC#N)sc2n(CC2CCO2)c1=O (racemic) [Example 364, [1-{[3-(2-Methoxyethyl)-5-methyl-1-(oxetan-2-ylmethyl)-2,4-dioxo-1,2,3,4-tetrahydrothieno[2,3-d]pyrimidin-6-yl]methyl}imidazolidin-2-ylidene]cyanamide] yielded an IC50 of 170 nM. In the case of COCCn1c(=O)c2c(C)c(CN3CCNC3=NC#N)sc2n(CC2CCCO2)c1=O (racemic) [Example 367, [1-{[3-(2-Methoxyethyl)-5-methyl-2,4-dioxo-1-(tetrahydrofuran-2-ylmethyl)-1,2,3,4-tetrahydrothieno[2,3-d]pyrimidin-6-yl]methyl}imidazolidin-2-ylidene]cyanamide], the IC50 is reported as 33 nM. In the case of CCn1c(=O)c2c(C)c(CN3CCNC3=NC(=O)OC)sc2n(CC2CCO2)c1=O (racemic) [Example 371, Methyl [1-{[3-ethyl-5-methyl-1-(oxetan-2-ylmethyl)-2,4-dioxo-1,2,3,4-tetrahydrothieno[2,3-d]pyrimidin-6-yl]methyl}imidazolidin-2-ylidene]carbamate], the IC50 is reported as 9.8 nM. CCn1c(=O)c2c(C)c(CN3CCNC3=NC(=O)OC)sc2n(CC2CCCO2)c1=O (racemic) [Example 374, Methyl [1-{[3-ethyl-5-methyl-2,4-dioxo-1-(tetrahydrofuran-2-ylmethyl)-1,2,3,4-tetrahydrothieno[2,3-d]pyrimidin-6-yl]methyl}imidazolidin-2-ylidene]carbamate] showed an IC50 of 7 nM. COC(=O)N=C1NCCN1Cc1sc2c(c1C)c(=O)n(C(C)C)c(=O)n2CC1CCO1 (racemic) [Example 379, Methyl [1-{[3-isopropyl-5-methyl-1-(oxetan-2-ylmethyl)-2,4-dioxo-1,2,3,4-tetrahydrothieno[2,3-d]pyrimidin-6-yl]methyl}imidazolidin-2-ylidene]carbamate] showed an IC50 of 13 nM. In the case of COC(=O)N=C1NCCN1Cc1sc2c(c1C)c(=O)n(C(C)C)c(=O)n2CC1CCCO1 (racemic) [Example 380, Methyl [1-{[3-isopropyl-5-methyl-2,4-dioxo-1-(tetrahydrofuran-2-ylmethyl)-1,2,3,4-tetrahydrothieno[2,3-d]pyrimidin-6-yl]methyl}imidazolidin-2-ylidene]carbamate], the IC50 is reported as 12 nM.
